The series can be described thus: gradient 5% acetonitrile 3 min, to 50% in 2 min, to 85% in 15 min, held 3 min, 100 µL/min. The note with it: column: Zorbax Extend-C18 2.1 x 50 mm; eluents: water / acetonitrile, 0.1% formic acid. Put shortly: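 Mixtures of ~100 pure standards were chromatographed on a Zorbax Extend-C18 column (2.1 × 50 mm, 1.8 μm) at 100 μL/min using water and acetonitrile, each with 0.1% formic acid. Detection used a quadrupole time-of-flight mass spectrometer in positive and negative ionization mode, and data collection spanned 3 months. Retention time was obtained from adduct peaks picked computationally and each checked manually.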
`CN(C)C(CNC(=O)Nc1ccccc1Cl)c1cn(C)c2ccccc12` (stereo unspecified) registered an RP-LC retention time of 589 s.
The molecule `Cc1ccc(CC(=O)N2CCC3(CC2)NC(=O)c2cc(C)ccc2N3C)cc1` showed an RP-LC retention time of 852 s.
For `CCc1noc2nc(C)n(CC(=O)NCc3ccccc3F)c(=O)c12` the value was 788 s; for `CC(C)NC(=O)C1CCC(=O)N1C1CCN(C(=O)C2CCC2)CC1` (stereo unspecified), 584 s; for `CCN(Cc1ccccc1)C(=O)c1c(C)sc2ccn(CC)c(=O)c12`, 754 s.
As to `CCOC(=O)Cc1ccc(NC(=O)N2CCSc3nc(C)cc(C)c32)cc1`, the RP-LC retention time was determined as 735 s.
In turn, `CCCS(=O)(=O)Nc1cccc(-c2cn3ccc(C)cc3n2)c1` displayed an RP-LC retention time of 614 s.
Take `CCOC(=O)CCNC(=O)N1CCC(N2C(=O)C3(CCCC3)C2c2scnc2C)CC1` (stereo unspecified): the RP-LC retention time was determined as 685 s.
`Cc1ccc(NC(=O)CN2C(=O)C3CCCCN3c3ccc(S(=O)(=O)N(C)C)cc32)c(C)c1` (stereo unspecified) yielded an RP-LC retention time of 994 s.
For `O=C(NCc1cccnc1-c1ccc(F)cc1)c1ccc(Br)cc1` the value was 735 s.
As for `Cn1cccc1C(=O)Nc1cnn(-c2ncc(N3CCCC3)cn2)c1`, the figure is 789 s.
As for `CCN(CC)CCN(CC(=O)N1CCNCC1)S(=O)(=O)c1ccc(C)c(C)c1`, the figure is 576 s; as for `CCOc1ccc(S(=O)(=O)Nc2cc(-c3cn4ccccc4n3)ccc2C)cc1`, 687 s.
On to `O=C(NCCCN1CCOC(c2ccccc2)C1)c1ccc(Cl)cc1Cl` (stereo unspecified), for which the RP-LC retention time stood at 599 s.
`O=C(CC1CCN(C(=O)c2ccc3nc(-c4ccccc4)oc3c2)CC1)NC1CC1` came in with an RP-LC retention time of 730 s.
The molecule `Cc1ccc(NC(=O)N2CCCN(c3ccc(=O)n(-c4ccccc4)n3)CC2)cc1` displayed an RP-LC retention time of 820 s.
For `COc1ccc(OC)c(CNC(=O)C2CCCN(c3ccc(=O)n(-c4ccc(F)cc4)n3)C2)c1` (stereo unspecified), the RP-LC retention time was found to be 812 s.
`O=C(Nc1ccc(-c2nc(-c3cccc(Br)c3)co2)cc1)c1ccco1`: the RP-LC retention time turned out to be 1150 s.
For `Cc1noc(COC2CCCN(C(=O)CCc3c(C)noc3C)C2)n1` (stereo unspecified) the value was 678 s; for `Cc1noc(C)c1CCNC(=O)C1CCN(C(=O)c2ncn3c2COC(c2ccc(F)cc2)C3)CC1` (stereo unspecified), 711 s.
`COc1ccc(OC)c(Nc2c(-c3ccccn3)nc3cnccn23)c1` yielded an RP-LC retention time of 744 s.
For `COCCn1cnc2c(-c3ccccc3)cn(CC(=O)NCC3CCCO3)c2c1=O` (stereo unspecified) the value was 678 s; for `Cc1c(C)n(-c2ccccc2)c2ncn(CC(=O)NC3CCCC3)c(=O)c12`, 799 s.
Consider `CCC(Oc1ccc(Cl)cc1)C(=O)OC1CC2CCC(C1)N2C` (stereo unspecified), for which the RP-LC retention time worked out at 815 s.
As for `CCN1C(=O)c2c(C(=O)N3CCOCC3)ncn2CC1(C)C(=O)NCc1ccc(F)cc1` (stereo unspecified), the figure is 678 s; as for `Cc1ccc(F)cc1S(=O)(=O)N1CCc2c(c(-c3nnc(-c4ccccc4)o3)nn2C)C1`, 846 s.
Turning to `O=C1c2ccccc2C(=O)c2c1ccc(C(=O)N1CCN(c3ccccn3)CC1)c2NCCO`, the RP-LC retention time is 616 s.
As for `CCCCC(=O)N(C)CC1CCOCC1`, the figure is 686 s; as for `O=C(NC1CCCCCCC1)C1CCN(C(=O)c2ccc(F)cc2)CC1`, 858 s.
For `CC1(C(=O)NCCc2c[nH]c3ccccc23)CCCCC(=O)N1` (stereo unspecified) the value was 656 s.
`COc1ccc(CC(C)(O)CNC(=O)c2cccc(C(F)(F)F)c2)cc1` (stereo unspecified) showed an RP-LC retention time of 823 s.
For `CCOC(=O)c1nc(N(CC)c2cccc(C)c2)c2ccccc2n1` the value was 1050 s.
Take `O=C(Cc1cc(-c2ccco2)on1)Nc1ccc(F)c(F)c1F`: the RP-LC retention time is 838 s.
For `CCOCCCNC(=O)c1c2c(cn(-c3ccccc3)c1=O)C(=O)CC(C)(C)C2` the value was 591 s.
For `COc1ccc(C(=O)CN(C(=O)N2CCN(C)CC2)S(=O)(=O)c2ccc(C)cc2)cc1` the value was 588 s; for `Cc1nc(CC(=O)NC(C)c2ccccc2)sc1C(=O)NCC(C)C` (stereo unspecified), 763 s; for `COc1ccc(NC(=O)Cn2ccc3ccc(-c4nnc(C)o4)cc32)cc1`, 937 s.
Regarding `O=c1c2oc3ccccc3c2ncn1Cc1nc(-c2ccc3c(c2)OCO3)no1`, the RP-LC retention time stood at 909 s.
As for `COc1ccc(S(=O)(=O)N(C)CCCC(=O)O)cc1N(C)S(C)(=O)=O`, the figure is 633 s; as for `COc1ccc(-c2cc(C(=O)Nc3ccc(F)cc3)sn2)cc1`, 1090 s; as for `C=CCn1ccc2c(OCC(=O)NC3CCCC3)cccc2c1=O`, 788 s.
`O=C(NC1CCN(c2cc(-c3cccs3)[nH]n2)C1)c1cc(Cl)ccc1F` (stereo unspecified) yielded an RP-LC retention time of 800 s.
For `COc1ccc(OC)c(C(O)CN2CCN(c3cccc(C)c3)CC2)c1` (stereo unspecified) the value was 712 s; for `CCc1ccc(C(=O)CC2(O)C(=O)Nc3c(C)cccc32)cc1` (stereo unspecified), 807 s.
As for `CCCN1C(=O)COc2ccc(-c3noc(CCc4ccccc4)n3)cc21`, the RP-LC retention time amounted to 1150 s.
As for `O=C(c1ccc(F)c(F)c1)N1CCN(c2nc(CN3CCCC3)cs2)CC1`, the RP-LC retention time was 635 s.
For `CCCCNC(=O)C1Cc2ccccc2CN1S(=O)(=O)c1ccccc1` (stereo unspecified) the value was 960 s; for `COc1cc(OC)cc(C(=O)NC(C)C(=O)Nc2nc3ccccc3[nH]2)c1` (stereo unspecified), 656 s.
The molecule `COc1ccc(OC)c2[nH]c(C(=O)N[C@H](C(=O)O)c3ccccc3)cc12` had an RP-LC retention time of 891 s.
As for `COc1cccc(-c2n[nH]c3c2C(c2ccc(O)cc2)N(C)C3=O)c1` (stereo unspecified), the figure is 693 s; as for `CNC(=O)[C@@H]1C[C@H](Oc2cccnc2)CN1C(=O)C1CCC1`, 540 s; as for `COC(=O)c1cnc(N2CCN(C)CC2)c2ccccc12`, 610 s.
For `O=c1ccc(S(=O)(=O)N2CCCC2)cn1Cc1ccc(F)cc1` the value was 820 s; for `Cc1ccc(-c2coc(-c3ccc(NC(=O)NC4CCCC4)cc3)n2)c(C)c1`, 1180 s.
For `NC(=O)c1cnc(-c2ccc(Cl)cc2)n(CC(=O)N2CCCc3ccccc32)c1=O` the value was 986 s; for `O=C(Nc1cccc(Cl)c1F)c1cnc(-c2ccccc2)nc1-c1ccncc1`, 964 s; for `CCOC(=O)c1noc2ncnc(N3CCN(c4ccc(F)cc4)CC3)c12`, 1010 s.
With `CC(C)(CO)NCc1ccc(-c2ccc(Cl)cc2)o1`, the RP-LC retention time amounted to 655 s.
On to `CN1C(=O)c2cccn2CC1C(=O)NC1CCCC1` (stereo unspecified), for which the RP-LC retention time worked out at 634 s.
As for `CC1CCN(S(=O)(=O)c2ccc(-c3nnc(C(=O)NC4CCCC4)o3)cc2)CC1`, the figure is 1030 s; as for `COc1ccc(-c2ncccc2CNC(=O)C2CC2)cc1`, 569 s; as for `Cc1ncoc1C(=O)N1CCC(c2noc(-c3cccnc3)n2)C1` (stereo unspecified), 640 s.
Consider `Cc1ccc(CNS(=O)(=O)c2cc3n(c2)CCCN(C)C3=O)cc1`, for which the RP-LC retention time turned out to be 711 s.
For `Cc1nc(N2CCOCC2)c2c(C(=O)Nc3ccc(F)cc3Cl)c(C)oc2n1`, the RP-LC retention time is 896 s.
`Cc1ccc(C)c(NC(=O)C2CCCN(c3nc4c(s3)c(C)nn4-c3ccccc3)C2)c1` (stereo unspecified) displayed an RP-LC retention time of 1220 s.
As for `CCc1cccc(NC(=O)Cn2nc3c(Sc4ccccc4)nccn3c2=O)c1`, the figure is 1010 s; as for `Cc1cnc(C(=O)N2CCCC(c3nnc4n3CCN(C(=O)C3CC3)C4)C2)cn1` (stereo unspecified), 584 s.
As for `Cc1ccc(CNC(=O)C2(C)CCCN(C(=O)NCCc3ccccc3)C2)cc1` (stereo unspecified), the figure is 912 s.
As for `Cc1ccc(NS(=O)(=O)c2cc(-c3[nH]ncc3C(=O)N(C)C)oc2C)c(C)c1`, the figure is 739 s; as for `Cc1ccc(C)c(N2CCN(c3ccnc(SCC(=O)Nc4c(C)cccc4Cl)n3)CC2)c1`, 942 s.
Take `O=C(Cc1c(F)cccc1Cl)N1CCN(Cc2ccsc2)CC1`: the RP-LC retention time was determined as 570 s.
For `Cc1ccccc1N1C[C@@]23C=C[C@@H](O2)[C@H](C(=O)OC(C)C)[C@@H]3C1=O` the value was 785 s.
For `CCCS(=O)(=O)N1CCC(OCCOc2cccnc2)CC1` the value was 581 s; for `COc1ccc(-c2noc(-c3ccc(NCCN(C)C)nn3)n2)cc1`, 630 s.
Take `Cc1ccc(NC(=O)N2CCCC2c2cc(C)no2)cc1` (stereo unspecified): the RP-LC retention time was 782 s.
On to `COc1nn(C)cc1C(=O)N1CCC(C(=O)Nc2ccc(-n3cnnn3)cc2)CC1`, for which the RP-LC retention time was determined as 600 s.
With `COc1ccc(S(=O)(=O)NC(CC(=O)O)c2ccccc2)cc1` (stereo unspecified), the RP-LC retention time was found to be 674 s.
For `O=C1CC(c2nc(-c3ccc4c(c3)OCO4)no2)CN1c1ccc(Cl)cc1` (stereo unspecified), the RP-LC retention time was found to be 1030 s.
Regarding `Cc1ccc(CNC(=O)c2cc3c(s2)N(C)CCC3)cc1`, the RP-LC retention time was 977 s.
On to `CSc1nc(N2CCCC2)c2cnn(CCNC(=O)c3cc(-c4ccccc4)n[nH]3)c2n1`, for which the RP-LC retention time came to 761 s.
The molecule `CCC(C)NC(=O)CCC(=O)N1CCc2c(c(C(=O)N3CCCCC3)nn2C)C1` (stereo unspecified) gave an RP-LC retention time of 645 s.

These data come from the METLIN SMRT retention time set (Domingo-Almenara et al. 2019).
